# Data taken from publication PMC3441706 (PLoS ONE, 2012).
# Experiments:
# [1] = test system: HCT116; assay: Cytotoxicity assay (cell counting); type: cell-based, Human
# Procedure: (§1) Cells were plated in 24-well plates. After cells were allowed to recover for 24 hours, NVX-412 was added in fresh growth medium. The maximal DMSO concentration reached in all experiments was below 0.01%. Respective control experiments at the highest DMSO concentration were performed in order to rule out DMSO-induced effects. After 72 hours incubation the proportion of viable cells was determined by cell counting with a Z1 Coulter Particle Counter (Beckman Coulter, Vienna, AUT), a ViCell XR (Beckman Coulter, Vienna, AUT) or a CASY® Cell Counter (Schärfe, Reutlingen, Germany). Cytotoxicity was expressed as IC50 values that were derived from the corresponding dose–response curves.
# [2] = test system: HT-29; assay: Cytotoxicity assay (cell counting); type: cell-based, Human
# Procedure: as §1
# [3] = test system: Normal human endothelial cells (HUVEC); assay: Cytotoxicity assay, normal cells; type: cell-based
# Procedure: as §1
# [4] = test system: human white preadipocytes (hWP); assay: Cytotoxicity assay, normal cells; type: cell-based
# Procedure: as §1
# [5] = test system: p-p53 (Ser15); assay: Immunofluorescence staining of p-p53 (Ser15) in HCT116 cells; type: cell-based, human; conditions: HCT116, 24 hours
# Procedure: (§2) HCT116 and HeLa cells were seeded on glass cover slips in 6-well plates. 24 hours after plating, HCT116 cells were incubated with 0.15, 0.5 and 1 µM NVX-412 and 1 µM CPT for 24 hours for staining of p-p53. For investigating γH2AX, HeLa cells were incubated with 0.21, 0.5 and 1 µM NVX-412 and 1 µM CPT for 3 or 24 hours. Additionally, cells were allowed to recover for 24 hours in normal growth medium after 24 hours of incubation with NVX-412 or CPT (wash-out experiment). After the respective treatments, cells were washed and fixed with 4% methanol-free formaldehyde (Polysciences Inc. Warrington, PA, USA) for 15 minutes at room temperature and then permeabilized with 0.2% Triton X-100/PBS for 2 minutes at room temperature. After blocking with goat serum (5%) in 1% BSA/0.3% Triton X-100/PBS, the respective primary antibody was added and cells were incubated at 4°C overnight. Antibodies used were: mouse p-p53 (Ser15) (Cell Signaling Technology, Danvers, MA, USA) at 1∶100 dilution and mouse p-H2AX (Ser139) (Millipore, Billerica, MA, USA) at 1∶1000 dilution in 1% BSA/PBS, respectively. Cells were then washed 3 times for 10 minutes with 0.25% BSA/0.1% Triton X-100/PBS and incubated with the Alexa Fluor 488 conjugated secondary anti-mouse antibody (1∶1000 in 0.25% BSA/0.1% Triton X-100/PBS) for 1 hour at room temperature in the dark. Cells were washed 3 times for 10 minutes with 0.05% Tween-20/PBS containing Hoechst 33342 (Sigma Aldrich, Vienna, AUT) and mounted with mounting medium (Fluoprep, bioMérieux, Marcy l'Etoile, FRA). Fluorescence was immediately recorded on a Zeiss LSM700 laser scanning microscope.
# [6] = test system: p-p53 (Ser15); assay: Western Blot for p-p53 (Ser15) in HCT116 cells; type: cell-based, human; conditions: HCT116, 24 and 48 hours
# Procedure: (§3) Treated cells were directly lysed in NP40 cell lysis buffer (Invitrogen, Grand Island, NY, USA) containing protease and phosphatase inhibitors. Protein concentrations were measured colorimetrically (DC Protein Assay, Bio-Rad Laboratories, Hercules, CA, USA). Proteins were separated by SDS - polyacrylamide gel electrophoresis and blotted onto nitrocellulose membranes (Whatman™, Vienna, AUT). Equal loading was checked by Ponceau S (SERVA, Heidelberg, GER) staining. Bound antigen was visualized with the enhanced chemiluminescence detection system (Roche Diagnostics, Indianapolis, IN, USA). These procedures were performed according to the manufacturer’s protocols. Antibodies specific for the following proteins of interest were used: pChk1 (Ser296), p-p53 (Ser15), β-Tubulin and GAPDH were obtained from Cell Signaling Technology (Danvers, MA, USA) at 1∶1000 dilution. Secondary antibodies were peroxidase-tagged goat anti-rabbit or anti-mouse IgGs (Cell Signaling Technology) (1∶2000).
# [7] = test system: HCT116 cells; assay: DNA replication rate (BrdU incorporation ELISA); type: cell-based, human
# Procedure: (§4) HeLa and HCT116 cells were plated in black 96-well plates. After cells were allowed to recover for 24 hours NVX-412 or CPT was added in fresh growth medium. After 24 hours of incubation a chemiluminescent BrdU Incorporation ELISA (Roche Applied Science, Penzberg, Germany) was performed with half of the plates according to the manufacturer’s protocol. Cells in the remaining plates were allowed to recover for 24 hours in normal growth medium before DNA replication was measured (wash-out experiment). To check whether a possible decline in DNA replication rate is not simply due to lower cell numbers because of cell death induction, the proportion of viable cells was determined in parallel by a MTT-based cytotoxicity assay according to the manufacturer’s protocol (EZ4U, Biomedica, Vienna, Austria). Colorimetric (at 492 and 620 nm) and chemiluminescent measurements were performed using a FLUOstar OPTIMA (BMG Labtech, Ortenberg, Germany).
# [8] = test system: HeLa cells; assay: DNA replication rate (BrdU incorporation ELISA); type: cell-based, human
# Procedure: as §4
# [9] = test system: pChk1 (Ser296); assay: Western Blot for pChk1 (Ser296) in HCT116 cells; type: cell-based, human; conditions: HCT116, 150 nM, 0–48 hours
# Procedure: as §3
# [10] = test system: γH2AX (Ser139); assay: Immunofluorescence staining and quantification of γH2AX in HeLa cells; type: cell-based, human
# Procedure: as §2
# The common procedure for assessing γH2AX induction is to count γH2AX foci. Since with NVX-412 and the positive control CPT γH2AX activation was that strong, no distinguishable and countable foci were seen. Therefore, the average γH2AX fluorescence intensity per nucleus was determined. To this end, γH2AX intensities within a certain field were measured using Quantity One –4.6.9 (Basic freeware version, Bio-Rad Laboratories, Hercules, CA, USA) and were divided by the number of nuclei in this field.
compound,measurement,setting,value
"O=C(NNc1nc2cc(F)ccc2n2cccc12)c1cnccn1 [NVX-412, Pyrazine-2-carboxylic acid N’- (7-fluoro-pyrrolo[1,2-α]quinoxalin-4-yl)-hydrazide-oxalic acid co-crystal]",IC50 lower compared to the parental compound NVX-144,[1]; HCT116 colon carcinoma cell line,3 to 4 fold
same,IC50,"[1]; Homo sapiens, HCT-116, HCT116, colon carcinoma, 72 hours incubation",150 nM
same,IC50 lower compared to the parental compound NVX-144,[2]; HT-29 colon carcinoma cell line,3 to 4 fold
same,IC50,"[2]; Homo sapiens, HT-29, colon adenocarcinoma, 72 hours incubation",300 nM
same,IC50,[3],2000 nM
same,IC50,[4],1000 nM
same,p-p53 (Ser15) immunofluorescence staining,[5]; 0.5 and 1 µM,positive staining
same,p-p53 (Ser15) immunofluorescence staining,[5]; IC50 concentration,did not lead to p-p53 (Ser15) staining
same,Phosphorylated p53 (Western Blot),[6]; below or at the IC50,negative for phosphorylated p53
same,Phosphorylated p53 (Western Blot),[6]; concentrations above the IC50,strong induction
same,DNA replication rate (BrdU incorporation),"[7]; HCT116, 24 hours treatment",reduction of DNA replication
same,DNA replication rate after recovery (wash-out),"[7]; HCT116, 24 hours treatment then 24 hours in normal growth medium",the rate increased to normal levels
same,DNA replication rate (BrdU incorporation),[8]; 24 hours treatment,reduction of DNA replication
same,DNA replication rate after recovery (wash-out),[8]; 24 hours treatment then 24 hours in normal growth medium,the rate increased to normal levels
same,Chk1 Ser296 phosphorylation,[9],increased after 4 hours
same,γH2AX induction,[10]; 3 hours,Only a slight induction of γH2AX
same,γH2AX levels after recovery (wash-out),[10]; 24 hours treatment then 24 hours without drug,decreased to nearly basal levels
same,γH2AX levels,"[10]; 24 hours, 0.21, 0.5 and 1 µM",elevated after a 24 hour treatment in a dose-dependent manner
same,γH2AX staining increase (average fluorescence intensity per nucleus),"[10]; 24 hours, highest concentration tested, p-value <0.0001",up to 15 fold
